From paper PMC10866072, “Design, synthesis, molecular modelling and biological evaluation of novel 6-amino-5-cyano-2-thiopyrimidine derivatives as potent anticancer agents against leukemia and apoptotic inducers” (Journal of Enzyme Inhibition and Medicinal Chemistry, 2024)

What was measured:
HCC-2998 = assay type: cell-based; conditions: Homo sapiens, one dose 10^-5 M, 48 h
UO-31 = assay type: cell-based; conditions: Homo sapiens, UO-31, 48 h, one dose 10^-5 M, 48 h
HS 578T = assay type: cell-based; conditions: Homo sapiens; one dose 10^-5 M, 48 h; HS 578T; read-out: % growth
NCI/ADR-RES = assay type: cell-based; conditions: Homo sapiens, one dose 10^-5 M, 48 h
HOP-92 = assay type: cell-based; conditions: Homo sapiens, one dose 10^-5 M, 48 h
COLO 205 = assay type: cell-based; conditions: Homo sapiens, one dose 10^-5 M, 48 h
HCT-15 = assay type: cell-based; conditions: Homo sapiens, one dose 10^-5 M, 48 h, read-out: % growth
SK-MEL-2 = assay type: cell-based; conditions: Homo sapiens, one dose 10^-5 M, 48 h
NCI-H23 = assay type: cell-based; conditions: Homo sapiens, one dose 10^-5 M, 48 h, read-out: % growth
SNB-19 = assay type: cell-based; conditions: Homo sapiens, one dose 10^-5 M, 48 h, read-out: % growth
MOLT-4 = assay type: cell-based; conditions: Homo sapiens, one dose 10^-5 M, 48 h, read-out: % growth
SK-MEL-28 = assay type: cell-based; conditions: Homo sapiens, one dose 10^-5 M, 48 h
MDA-MB-435 = assay type: cell-based; conditions: Homo sapiens, one dose 10^-5 M, 48 h, read-out: % growth
PC-3 = assay type: cell-based; conditions: Homo sapiens, one dose 10^-5 M, 48 h
KM12 = assay type: cell-based; conditions: Homo sapiens, one dose 10^-5 M, 48 h
CCRF-CEM = assay type: cell-based; conditions: Homo sapiens, one dose 10^-5 M, 48 h
IGROV1 = assay type: cell-based; conditions: Homo sapiens, IGROV-1, one dose 10^-5 M, 48 h, read-out: % growth
M14 = assay type: cell-based; conditions: Homo sapiens, one dose 10^-5 M, 48 h
HOP-62 = assay type: cell-based; conditions: Homo sapiens, one dose 10^-5 M, 48 h
ACHN = assay type: cell-based; conditions: Homo sapiens, one dose 10^-5 M, 48 h
MDA-MB-231/ATCC = assay type: cell-based; conditions: Homo sapiens, one dose 10^-5 M, 48 h
OVCAR-8 = assay type: cell-based; conditions: Homo sapiens, one dose 10^-5 M, 48 h
MDA-MB-468 = assay type: cell-based; conditions: Homo sapiens, one dose 10^-5 M, 48 h
CAKI-1 = assay type: cell-based; conditions: Homo sapiens, CAKI-1, 48 h, one dose 10^-5 M, 48 h
TK-10 = assay type: cell-based; conditions: Homo sapiens, one dose 10^-5 M, 48 h
DU-145 = assay type: cell-based; conditions: Homo sapiens, one dose 10^-5 M, 48 h
SK-MEL-5 = assay type: cell-based; conditions: Homo sapiens, one dose 10^-5 M, 48 h, read-out: % growth
NCI-H460 = assay type: cell-based; conditions: Homo sapiens, one dose 10^-5 M, 48 h, read-out: % growth
T-47D = assay type: cell-based; conditions: Homo sapiens, T47D, one dose 10^-5 M, 48 h, read-out: % growth
SF-539 = assay type: cell-based; conditions: Homo sapiens, one dose 10^-5 M, 48 h
A549/ATCC = assay type: cell-based; conditions: Homo sapiens, one dose 10^-5 M, 48 h
OVCAR-5 = assay type: cell-based; conditions: Homo sapiens, one dose 10^-5 M, 48 h
BT-549 = assay type: cell-based; conditions: Homo sapiens, one dose 10^-5 M, 48 h
NCI-H226 = assay type: cell-based; conditions: Homo sapiens, one dose 10^-5 M, 48 h
HT29 = assay type: cell-based; conditions: Homo sapiens, HT-29, one dose 10^-5 M, 48 h
HL-60(TB) = assay type: cell-based; conditions: Homo sapiens, one dose 10^-5 M, 48 h
MCF7 = assay type: cell-based; conditions: Homo sapiens, one dose 10^-5 M, 48 h, read-out: % growth
OVCAR-3 = assay type: cell-based; conditions: Homo sapiens, one dose 10^-5 M, 48 h
SNB-75 = assay type: cell-based; conditions: Homo sapiens, one dose 10^-5 M, 48 h
RPMI-8226 = assay type: cell-based; conditions: Homo sapiens, one dose 10^-5 M, 48 h
A498 = assay type: cell-based; conditions: Homo sapiens, one dose 10^-5 M, 48 h
SR = assay type: cell-based; conditions: Homo sapiens, one dose 10^-5 M, 48 h
MALME-3M = assay type: cell-based; conditions: Homo sapiens, one dose 10^-5 M, 48 h
EKVX = assay type: cell-based; conditions: Homo sapiens, one dose 10^-5 M, 48 h
UACC-62 = assay type: cell-based; conditions: Homo sapiens, one dose 10^-5 M, 48 h
UACC-257 = assay type: cell-based; conditions: Homo sapiens, one dose 10^-5 M, 48 h
SF-295 = assay type: cell-based; conditions: Homo sapiens, one dose 10^-5 M, 48 h
SN12C = assay type: cell-based, human; conditions: Homo sapiens, one dose 10^-5 M, 48 h
SW-620 = assay type: cell-based; conditions: Homo sapiens, one dose 10^-5 M, 48 h
SF-268 = assay type: cell-based; conditions: Homo sapiens, one dose 10^-5 M, 48 h, read-out: % growth
[1] = system: full NCI 60 cell lines panel; conditions: for activity at 10 µM: Homo sapiens, 60 cell, 48 h, read-out: Mean % growth; for activity on all 60 cancer cell lines tested (in words): one dose
OVCAR-4 = assay type: cell-based; conditions: Homo sapiens, one dose 10^-5 M, 48 h
LOX IMVI = assay type: cell-based; conditions: Homo sapiens, one dose 10^-5 M, 48 h, read-out: % growth
SK-OV-3 = assay type: cell-based; conditions: Homo sapiens, one dose 10^-5 M, 48 h
786-0 = assay type: cell-based; conditions: Homo sapiens, one dose 10^-5 M, 48 h
HCT-116 = assay type: cell-based; conditions: Homo sapiens, one dose 10^-5 M, 48 h, read-out: % growth
U251 = assay type: cell-based; conditions: Homo sapiens, U-251, one dose 10^-5 M, 48 h
NCI-H522 = assay type: cell-based; conditions: Homo sapiens, one dose 10^-5 M, 48 h
K-562 = assay type: cell-based; conditions: Homo sapiens, K562, one dose 10^-5 M, 48 h

## COc1ccc(/C=N\NC(=N)c2c(N)nc(S)nc2-c2ccc(N(C)C)cc2)cc1 [Compound 4d, 4-amino-N'-[(1Z)-(4-methoxyphenyl)methylene]-6-[4-(dimethylamino)phenyl]-2-mercapto pyrimidine-5-carboximidohydrazide]
HCC-2998
  % growth at 10 µM: 108%
UO-31
  % cell growth at 10 µM: 72%
HS 578T
  activity at 10 µM: 112%
NCI/ADR-RES
  cell growth percent at 10 µM: 107%
HOP-92
  % growth at 10 µM: 109%
COLO 205
  % growth at 10 µM: 118%
HCT-15
  activity at 10 µM: 98.2%
SK-MEL-2
  % growth at 10 µM: 109%
NCI-H23
  activity at 10 µM: 103%
SNB-19
  activity at 10 µM: 101%
MOLT-4
  activity at 10 µM: 101%
SK-MEL-28
  % cell growth at 10 µM: 105%
MDA-MB-435
  activity at 10 µM: 96.7%
PC-3
  percent cell growth at 10 µM: 88.5%
KM12
  % growth at 10 µM: 93.2%
CCRF-CEM
  % cell growth at 10 µM: 78.9%
IGROV1
  activity at 10 µM: 104%
M14
  % growth at 10 µM: 96.1%
HOP-62
  % growth at 10 µM: 106%
ACHN
  % growth at 10 µM: 103%
MDA-MB-231/ATCC
  % growth at 10 µM: 103%
OVCAR-8
  % growth of cells at 10 µM: 104%
MDA-MB-468
  percent cell growth at 10 µM: 114%
CAKI-1
  % growth at 10 µM: 97.5%
TK-10
  % cell growth at 10 µM: 103%
DU-145
  % growth at 10 µM: 106%
SK-MEL-5
  activity at 10 µM: 102%
NCI-H460
  activity at 10 µM: 106%
T-47D
  activity at 10 µM: 98.7%
SF-539
  % growth at 10 µM: 108%
A549/ATCC
  % growth at 10 µM: 103%
OVCAR-5
  percent cell growth at 10 µM: 103%
BT-549
  % cell growth at 10 µM: 102%
NCI-H226
  % growth at 10 µM: 103%
HT29
  % growth at 10 µM: 100%
HL-60(TB)
  % growth at 10 µM: 93.8%
MCF7
  activity at 10 µM: 95.2%
OVCAR-3
  % growth at 10 µM: 105%
SNB-75
  % growth at 10 µM: 101%
RPMI-8226
  % growth at 10 µM: 86.5%
A498
  % growth at 10 µM: 119%
SR
  percent cell growth at 10 µM: 102%
MALME-3M
  % growth at 10 µM: 98.4%
EKVX
  % cell growth at 10 µM: 99%
UACC-62
  % growth at 10 µM: 94.3%
UACC-257
  percent cell growth at 10 µM: 106%
SF-295
  % cell growth at 10 µM: 104%
SN12C
  % growth at 10 µM: 100%
SW-620
  % growth at 10 µM: 103%
SF-268
  activity at 10 µM: 97%
[1]
  activity at 10 µM: 101%
  activity on all 60 cancer cell lines tested (in words): weak activity
OVCAR-4
  % growth at 10 µM: 96.8%
LOX IMVI
  activity at 10 µM: 101%
SK-OV-3
  % growth at 10 µM: 110%
786-0
  % growth at 10 µM: 98.3%
HCT-116
  activity at 10 µM: 108%
U251
  % growth at 10 µM: 106%
NCI-H522
  % growth at 10 µM: 93.3%
K-562
  % growth at 10 µM: 101%

## CN(C)c1ccc(-c2nc(S)nc(N)c2C(=N)NN=Cc2ccc(Cl)cc2Cl)cc1 [Compound 4f, 4-amino-N'-[(2,4-dichlorophenyl)methylene]-6-[4-(dimethylamino)phenyl]-2-mercapto pyrimidine-5-carboximidohydrazide]
HCC-2998
  % growth at 10 µM: 115%
UO-31
  % cell growth at 10 µM: 70.2%
HS 578T
  activity at 10 µM: 96.8%
NCI/ADR-RES
  cell growth percent at 10 µM: 101%
HOP-92
  % growth at 10 µM: 106%
COLO 205
  % growth at 10 µM: 166%
HCT-15
  activity at 10 µM: 76.7%
SK-MEL-2
  % growth at 10 µM: 108%
NCI-H23
  activity at 10 µM: 99.6%
SNB-19
  activity at 10 µM: 90.4%
MOLT-4
  activity at 10 µM: 100%
SK-MEL-28
  % cell growth at 10 µM: 104%
MDA-MB-435
  activity at 10 µM: 91.8%
PC-3
  percent cell growth at 10 µM: 89.8%
KM12
  % growth at 10 µM: 77.5%
CCRF-CEM
  % cell growth at 10 µM: 83.7%
IGROV1
  activity at 10 µM: 102%
M14
  % growth at 10 µM: 103%
HOP-62
  % growth at 10 µM: 103%
ACHN
  % growth at 10 µM: 107%
MDA-MB-231/ATCC
  % growth at 10 µM: 99.5%
OVCAR-8
  % growth of cells at 10 µM: 106%
MDA-MB-468
  percent cell growth at 10 µM: 113%
CAKI-1
  % growth at 10 µM: 102%
TK-10
  % cell growth at 10 µM: 114%
DU-145
  % growth at 10 µM: 111%
SK-MEL-5
  activity at 10 µM: 99.3%
NCI-H460
  activity at 10 µM: 116%
T-47D
  activity at 10 µM: 104%
SF-539
  % growth at 10 µM: 81.6%
A549/ATCC
  % growth at 10 µM: 107%
OVCAR-5
  percent cell growth at 10 µM: 107%
BT-549
  % cell growth at 10 µM: 119%
NCI-H226
  % growth at 10 µM: 95.5%
HT29
  % growth at 10 µM: 107%
HL-60(TB)
  % growth at 10 µM: 88.4%
MCF7
  activity at 10 µM: 75.3%
OVCAR-3
  % growth at 10 µM: 110%
SNB-75
  % growth at 10 µM: 109%
RPMI-8226
  % growth at 10 µM: 80.6%
A498
  % growth at 10 µM: 114%
SR
  percent cell growth at 10 µM: 73.2%
MALME-3M
  % growth at 10 µM: 96.8%
EKVX
  % cell growth at 10 µM: 102%
UACC-62
  % growth at 10 µM: 92.3%
UACC-257
  percent cell growth at 10 µM: 109%
SF-295
  % cell growth at 10 µM: 92.7%
SN12C
  % growth at 10 µM: 93.7%
SW-620
  % growth at 10 µM: 100%
SF-268
  activity at 10 µM: 100%
[1]
  activity at 10 µM: 98.9%
  activity on all 60 cancer cell lines tested (in words): weak activity
OVCAR-4
  % growth at 10 µM: 104%
LOX IMVI
  activity at 10 µM: 83.3%
SK-OV-3
  % growth at 10 µM: 125%
786-0
  % growth at 10 µM: 84.9%
HCT-116
  activity at 10 µM: 67.7%
U251
  % growth at 10 µM: 93.2%
NCI-H522
  % growth at 10 µM: 97.2%
K-562
  % growth at 10 µM: 70.2%
